Reference: US8173133B2, “Acyl pseudodipeptides which carry a functionalized auxiliary arm” (OM Pharma, priority 1999, dated 2012)

Test system: human peripheral blood mononuclear cells
Test: inhibition of E. coli LPS-induced α TNF production in human peripheral blood mononuclear cells
Type: cell-based
Details: product 10 μg/ml; for 50% inhibition LPS: LPS concentration at which α TNF production is 50% of control; for max. Inhibition LPS: LPS concentration corresponding to maximum inhibition
Description: Mononuclear cells of peripheral blood are recovered from buffy coats of 6 healthy donors. Such buffy coat cells are resuspended and mononuclear cells are isolated by centrifugation on a Ficoll-Paque gradient (Amersham Pharmacia). Purified mononuclear cells are resuspended into RPMI-1640 medium supplemented with 10% FCS, antibiotics, mercaptoethanol and L-glutamine. Cell concentration is adjusted to 2×10^6 viable cells/ml.
Product mediated Inhibition is determined by preincubating those products with mononuclear cells, and adding, 1 hour later, serially diluted solutions of LPS capable of inducing α TFN production. […] E. coli LPS is serially diluted (10-fold dilution) to be in the range of 1 to 0.00001 μg/ml
50 μl of 10 μg/ml dilute product solutions in RPMI 1640 medium are dispensed into a microtiter plate. Each assay (10 μg/ml product concentration+dilute E. coli LPS) is run in triplicates and each microtiter plate includes a negative control comprised of plain medium. LPS-induced α TNF production (without inhibitor) is determined by adding E. coli LPS dilutions to RPMI medium.
100 μl of the cell suspension are added to each well containing dilutions of either product or control. Cells are incubated with the products for 1 hour in an incubator at 37° C., under 5% CO2 and a moisture saturated atmosphere.
At the end of the pre-incubation period, 50 μl of serially diluted solutions of E. coli LPS are added. Incubation of mononuclear cells with the product and LPS is extended for 18 hours. At the end of the cell activation period, the microtiter plates are centrifuged, and the supernatants are pooled and frozen at −80° C. as aliquots until time of ELISA assay.
Concentration of αTNF secreted by mononuclear cells is determined by chemiluminescent ELISA (QuantiGlo #QTAOO R&D kit). 4-fold dilutions of supernatant fluid are dispensed into each well of the microtiter plate to which anti-human αTNF antibodies are bound. The microtiter plate is incubated for 4 hours at room temperature. After washing, peroxidase-conjugated anti-human αTNF antibody is added. Following a 2 hour incubation period and a thorough washing, a chemiluminescent substrate is added and chemilunescence is read after 20 minutes. αTNF content in the supernatant fluid is determined with respect to a standard curve covering the 7000 to 0.7 pg/ml range.
Inhibition is characterized by the E. coli LPS concentration which elicits 50% production of α TNF during co-incubation in comparison to a control including only RPMI. This concentration increases as product inhibition activity becomes stronger. Knowing inhibition values of α TNF production, this concentration is given by calculating 100-(αTNF production induced by product and LPS)/(αTNF production induced by LPS alone)*100. From these inhibition data, concentration is determined by linear regression along the line segment which joins 2 LPS dilutions giving approx. 50% inhibition.
Product ability to inhibit α TNF production in mononuclear cells in response to LPS is further characterized by maximum inhibition. […] Results are calculated from a representative experience using all products.

Compound | max. Inhibition | 50% inhibition LPS | max. Inhibition LPS
CCCCCCCCCCCC(=O)O[C@H](CCCCCCCCCCC)CC(=O)N[C@H](CC(=O)N[C@@H](CC(=O)O)C(=O)O)C(=O)NCCC[C@H](COC(=O)CCCCCN)NC(=O)C[C@H](O)CCCCCCCCCCC [OM-197-Asp-AC, N—[(R)-3-dodecanoyloxytetradecanoyl]-D-aspartic acid, α-N-{(4R)-5-(6-aminohexanoyloxy)-4-[(R)-3-hydroxytetradecanoyl-amino]-pentyl}amide β-N-[(1S)-1,2-dicarboxyethyl]Amide] | 100% | 0.29 µg/mL | 0.0058 µg/mL
CCCCCCCCCCCC(=O)O[C@H](CCCCCCCCCCC)CC(=O)N[C@H](CC(=O)N[C@@H](CCCCN)C(=O)O)C(=O)NCCC[C@H](CO)NC(=O)C[C@H](O)CCCCCCCCCCC [OM-197-Lys] | 100% | 0.70 µg/mL | 0.0055 µg/mL
CCCCCCCCCCCC(=O)O[C@H](CCCCCCCCCCC)CC(=O)N[C@H](CC(=O)NCCCN)C(=O)NCCC[C@H](CO)NC(=O)C[C@H](O)CCCCCCCCCCC [OM-197-AP, N—[(R)-3-dodecanoyloxytetradecanoyl]-D-aspartic acid, α-N-{(4R)-5-hydroxy-4-[(R)-3-hydroxy-tetradecanoylamino]pentyl}-amide β-N-(3-aminopropyl)amide] | 100% | >1 µg/mL | 0.016 µg/mL
CCCCCCCCCCCC(=O)O[C@H](CCCCCCCCCCC)CC(=O)N[C@H](CC(=O)O)C(=O)NCCC[C@H](COC(=O)CCCCCO)NC(=O)C[C@H](O)CCCCCCCCCCC [OM-197-MC-FV7, N—[(R)-3-dodecanoyloxytetradecanoylamino]-D-aspartic acid, α-N-{(4R)-5-hydroxy-4-[(R)-3-hydroxytetradecanoylamino]pentyl}amide 5-O-(6-hydroxyhexanoate)] | 100% | >1 µg/mL | 0.00035 µg/mL
CCCCCCCCCCC[C@@H](O)CC(=O)N[C@H](CCCNC(=O)[C@@H](CC(=O)O)NC(C)=O)COC(=O)CCCCCN [OM-197-N′C2-MC-AC, N-acetyl-D-aspartic acid, α-N-{(4R)-5-(6-aminohexanoyloxy)-4-[(R)-3-hydroxytetradecanoylamino]-pentyl}amide] | 100% | 0.0003 µg/mL | 0.00001 µg/mL
CCCCCCCCCCC[C@@H](O)CC(=O)N[C@H](CCCNC(=O)[C@@H](CC(=O)O)NC(=O)C(CCCCCC)OC(=O)CCCCCCCCC)COC(=O)CCCCCN (stereo partly drawn) [OM-197-N′(C10-20C8)-MC-AC, N-(2-decanoyloxyoctanoyl)-D-aspartic acid, α-N-{(4R)-5-(6-aminohexanoyloxy)-4-[(R)-3-hydroxytetradecanoylamino]-pentyl}amide] | 85% | 0.0009 µg/mL | <0.00001 µg/mL
CCCCCCCCCCCC(=O)O[C@H](CCCCCCCCCCC)CC(=O)N[C@H](CC(=O)N[C@@H](CC(=O)O)C(=O)O)C(=O)NCCC[C@H](CO)NC(=O)C[C@H](O)CCCCCCCCCCC [OM-197-Asp, N—[(R)-3-dodecanoyloxytetradecanoyl]-D-aspartic acid, α-N-{(4R)-5-hydroxy-4-[(R)-3-hydroxytetradecanoylamino]-pentyl}Amide β-N-[(1S)-1,2-Dicarboxyethyl]Amide] | 100% | >1 µg/mL | 0.00036 µg/mL
CCCCCCCCCCCC(=O)O[C@H](CCCCCCCCCCC)CC(=O)N[C@H](CC(=O)N[C@@H](CCCCN)C(=O)O)C(=O)NCCC[C@H](COC(=O)CCCCCN)NC(=O)C[C@H](O)CCCCCCCCCCC [OM-197-Lys-AC] | 100% | >1 µg/mL | 0.001 µg/mL
CCCCCCCCCCCC(=O)O[C@H](CCCCCCCCCCC)CC(=O)N[C@H](CC(=O)O)C(=O)NCCC[C@H](COC(=O)CCC(=O)O)NC(=O)C[C@H](O)CCCCCCCCCCC [OM-197-MC-Succ] | 100% | 1 µg/mL | 0.018 µg/mL
CCCCCCCCCCCC(=O)O[C@H](CCCCCCCCCCC)CC(=O)N[C@H](CC(=O)O)C(=O)NCCC[C@H](COC(=O)CCCCCNC(=O)CCC(=O)O)NC(=O)C[C@H](O)CCCCCCCCCCC [OM-197-MC-AC-Succ, N—[(R)-3-dodecanoyloxytetradecanoyl]-D-aspartic acid, α-N-{(4R)-5-(6-succinylamidohexanoxyloxy)-4[(R)-3-hydroxy-tetradecanoylamino]pentyl}amide] | 100% | >1 µg/mL | 0.044 µg/mL
CCCCCCCCCCCC(=O)O[C@H](CCCCCCCCCCC)CC(=O)NC(CCOP(=O)(O)O)C(=O)NCCC[C@H](COC(=O)CCCCCN)NC(=O)C[C@H](O)CCCCCCCCCCC (mixture of isomers) [OM-197-MP-AC (R/S, R), (3RS,9R)-3-[(R)-3-dodecanoyloxytetradecanoylamino]-4oxo-5-aza-9-[(R)-3-hydroxytetradecanoylamino]-decan-10-ol 1-dihydrogen-phosphate(6-aminohexanoate)] | 100% | >1 µg/mL | 0.00002 µg/mL
CCCCCCCCCCCC(=O)O[C@H](CCCCCCCCCCC)CC(=O)NC(CCOP(=O)(O)O)C(=O)NCCCC(COC(=O)CCCCCO)NC(=O)C[C@H](O)CCCCCCCCCCC (stereo partly drawn) [OM-197-FV8, 3-[(R)-3-dodecanoyloxytetradecanoylamino]-4-oxo-5-aza-9-[(R)-3-hydroxytetradecanoylamino]-decan-1,10-diol 1-dihydrogenphosphate 10-(6-hydroxyhexanoate)] | 100% | >1 µg/mL | 0.0033 µg/mL
CCCCCCCCCCCC(=O)O[C@H](CCCCCCCCCCC)CC(=O)N[C@@H](CCOP(=O)(O)O)C(=O)NCCC[C@H](COC(=O)CCCCCO)NC(=O)C[C@H](O)CCCCCCCCCCC [OM-197-MP-AC (S, R), (3S,9R)-3-[(R)-3-dodecanoyloxytetradecanoylamino]-4-oxo-5-aza-9-[(R)-3-hydroxytetradecanoylamino]-1,10-diol 1-dihydrogenphosphate 10-(6-hydroxyhexanoate)] | 100% | >1 µg/mL | 0.00002 µg/mL
CCCCCCCCCCCC(=O)O[C@H](CCCCCCCCCCC)CC(=O)N[C@H](CC(=O)O)C(=O)NCCC[C@H](COP(=O)(O)O)NC(=O)C[C@H](O)CCCCCCCCCCC [OM-197-MC-MP, N—[(R)-3-dodecanoyloxytetradecanoyl]-D-aspartic acid, α-N-{(4R)-5-dihydroxyphosphoryloxy-4-[(R)-3-hydroxytetradecanoyl-amino]pentyl}amide] | 100% | 0.19 µg/mL | 0.001 µg/mL
